Experimental data reported in patent US8586620B2, “Substituted indole compounds having NOS inhibitory activity” (NeurAxon, Inc., priority 2005, dated 2013).
Where two headings read alike, the source gives them in different places.

Tests used:
[1] = target: human endothelial constitutive NOS (eNOS) (Homo sapiens (Human), UniProt P29474); assay: Human eNOS enzyme assay, radiometric; conditions: read-out: eNOSh;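 also: recombinant human eNOS expressed in baculovirus-infected Sf9 cells, activity read as [3H]L-arginine turned into [3H]L-citrulline, the product isolated on ion-exchange resin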
Procedure: (§1) In a radiometric method, NO synthase activity was determined by measuring the conversion of [^3H]L-arginine to [^3H]L-citrulline.
(§2) The total volume of the reaction mixture was 150 μL in every well. […] The reaction was stopped by adding 20 μL of ice-cold buffer containing 100 mM HEPES, 3 mM EGTA, 3 mM EDTA, pH=5.5. [^3H]L-citrulline was separated by DOWEX (ion-exchange resin DOWEX 50 W X 8-400, SIGMA) and the DOWEX was removed by spinning at 12,000 g for 10 min in the centrifuge. […] All assays were performed at least in duplicate. Standard deviations were 10% or less.

[2] = target: human neuronal constitutive NOS (nNOS) (Homo sapiens (Human), UniProt P29475); assay: Human nNOS enzyme assay, radiometric [3H]L-arginine to [3H]L-citrulline; conditions: for IC50: read-out: nNOSh;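 as to all read-outs here: recombinant human nNOS expressed in baculovirus-infected Sf9 cells, enzyme activity measured radiometrically as turnover of [3H]L-arginine into [3H]L-citrulline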
Procedure: as §1, §2

[3] = Table I, human NOS, dihydrochloride or monohydrochloride salts
[4] = Table II, human NOS, dihydrochloride or monohydrochloride salts

Row | Compound | IC50 [1, 3] [µM] | e/n ([2]; Table I, ratio eNOSh/nNOSh) | IC50 [2, 3] [µM] | IC50 [1, 4] [µM] | e/n ([2]; Table II, ratio eNOSh/nNOSh) | IC50 [2, 4] [µM] | further results
1 | CN1CC=C(c2c[nH]c3ccc(NC(=S)NC(=O)c4ccccc4)cc23)CC1 [Compound 64, N-(3-(1-methyl-1,2,3,6-tetrahydropyridin-4-yl)-1H-indol-5-ylcarbamothioyl)benzamide] | 43 | 3 | 14 |  |  |  | 
2 | CNC1CC=C(c2c[nH]c3ccc(NC(=N)c4cccs4)cc23)CC1 (centres unmarked) [Compound 100, N-(3-(4-(methylamino)cyclohex-1-enyl)-1H-indol-5-yl)thiophene-2-carboximidamide] | 32 | 18.5 | 1.73 |  |  |  | 
3 | N=C(Nc1ccc2[nH]cc(C3CN4CCC3CC4)c2c1)c1cccs1 (centres unmarked) [Compound 126, N-(3-(quinuclidin-3-yl)-1H-indol-5-yl)thiophene-2-carboximidamide] | 32.1 | 30.9 | 1.04 |  |  |  | 
4 | N=C(Nc1ccc2ccn(CCCN3CCOCC3)c2c1)c1ccsc1 [Compound 182] |  |  |  | 17 | 12.1 | 1.4 | 
5 | N=C(Nc1ccc2ccn(CCCCn3ccnc3)c2c1)c1cccs1 [Compound 167] |  |  |  | 4.56 | 3.74 | 1.22 | 
6 | N=C(Nc1ccc2[nH]cc(C3CCN(C(=O)c4ccccc4)CC3)c2c1)c1cccs1 [Compound 70, N-(3-(1-benzoylpiperidin-4-yl)-1H-indol-5-yl)thiophene-2-carboximidamide] | 50.9 | 9.06 | 5.62 |  |  |  | 
7 | CN1CCC[C@H]1CCn1ccc2ccc(NC(=N)c3cccs3)cc21 [Compound 139] |  |  |  | 24 | 120 | 0.2 | 
8 | CN(C)CCCn1ccc2ccc(NC(=N)c3cccs3)cc21 [Compound 160] |  |  |  | 5.77 | 2.11 | 2.73 | 
9 | CN1CCC[C@@H]1CCn1ccc2ccc(NC(=N)c3cccs3)cc21 [Compound 138] |  |  |  | 16 | 50 | 0.32 | 
10 | N=C(Nc1ccc2ccn(CCCCn3ccnc3)c2c1)c1cccs1 [Compound 168, N-(1-(4-(1H-imidazol-1-yl)butyl)-1H-indol-6-yl)thiophene-2-carboximidamide] |  |  |  | 2.53 | 9.6 | 0.26 | 
11 | CN1CC=C(c2c[nH]c3ccc(NC(=N)c4cccs4)cc23)C(F)C1 (centres unmarked) [Compound 134, N-(3-(3-fluoro-1-methyl-1,2,3,6-tetrahydropyridin-4-yl)-1H-indol-5-yl)thiophene-2-carboximidamide] | 143 | 51.4 | 2.78 |  |  |  | 
12 | CN1CCC[C@@H]1Cc1c[nH]c2ccc(NC(=N)c3ccco3)cc12 [Compound 106, (R)-N-(3-((1-Methylpyrrolidin-2-yl)methyl)-1H-indol-5-yl)furan-2-carboximidamide] | 27.1 | 13.0 | 2.08 |  |  |  | 
13 | N=C(Nc1ccc2[nH]cc(C3CCNCC3)c2c1)c1cccs1 [Compound 88, N-(3-(piperidin-4-yl)-1H-indol-5-yl)thiophene-2-carboximidamide] | 78.1 | 8.5 | 9.23 |  |  |  | 
14 | CN1C2C=C(c3c[nH]c4ccc(NC(=N)c5cccs5)cc34)CC1CC2 (centres unmarked) [Compound 90, N-(3-(8-methyl-8-azabicyclo[3.2.1]oct-3-en-3-yl)-1H-indol-5-yl)thiophene-2-carboximidamide] | 67.9 | 20.3 | 3.35 |  |  |  | 
15 | CN(C)CCc1c[nH]c2ccc(CNC(=N)c3cccs3)cc12 [Compound 59, N-((3-(2-(dimethylamino)ethyl)-1H-indol-5-yl)methyl)thiophene-2-carboximidamide] | 86.2 |  |  |  |  |  | e/n [2]: 7; IC50 [2]: 12.8 µM
16 | N=C(Nc1ccc2ccn(CCc3ccccc3)c2c1)c1cccs1 [Compound 115] |  |  |  |  | >8.3 |  | IC50 [1]: > 100 µM; IC50 [2]: 12 µM

Row | Compound | IC50 [1, 3] [µM] | e/n ([2]; Table I, ratio eNOSh/nNOSh) | IC50 [2, 3] [µM] | IC50 [1, 4] [µM] | e/n ([2]; Table II, ratio eNOSh/nNOSh) | IC50 [2, 4] [µM] | further results
17 | CN1CCCC(n2ccc3ccc(NC(=N)c4cccs4)cc32)CC1 (centres unmarked) [Compound 156] |  |  |  | 37 | 42.5 | 0.87 | 
18 | N=C(Nc1ccc2ccn(CCCN3CCOCC3)c2c1)c1ccco1 [Compound 183] |  |  |  | 34 | 14.2 | 2.4 | 
19 | N=C(Nc1ccc2[nH]cc(C3CN4CCC3CC4)c2c1)c1ccco1 (centres unmarked) [Compound 127, N-(3-(quinuclidin-3-yl)-1H-indol-5-yl)furan-2-carboximidamide] | 66 | 25.3 | 2.6 |  |  |  | 
20 | CN(C)C1CCC(c2c[nH]c3ccc(NC(=N)c4cccs4)cc23)CC1 (centres unmarked) [Compound 116, N-(3-(4-(dimethylamino)cyclohexyl)-1H-indol-5-yl)thiophene-2-carboximidamide] | 31.8 | 9.2 |  |  |  |  | 
21 | CCN1CCC(c2c[nH]c3ccc(NC(=N)c4cccs4)cc23)CC1 [Compound 62, N-(3-(1-ethylpiperidin-4-yl)-1H-indol-5-yl)thiophene-2-carboximidamide] | 57.3 | 24 | 2.43 |  |  |  | 
22 | N=C(Nc1ccc2[nH]cc(C3CCN(C(=N)c4cccs4)CC3)c2c1)c1cccs1 [Compound 77, N-(3-(1-(imino(thiophen-2-yl)methyl)piperidin-4-yl)-1H-indol-5-yl)thiophene-2-carboximidamide] | 4.44 | 6.19 | 0.717 |  |  |  | 
23 | CN1CCCC1CCn1c(Cc2ccccc2)cc2ccc(NC(=N)c3cccs3)cc21 (centres unmarked) [Compound 162] |  |  |  | 33 | 14.3 | 2.3 | 
24 | CCN(CC)CCCn1ccc2ccc(NC(=N)c3cccs3)cc21 [Compound 158] |  |  |  | 10.2 | 17.2 | 0.59 | 
25 | N=C(Nc1ccc2ccn(CCN3CCCCC3)c2c1)c1cccs1 [Compound 136] |  |  |  | 3.8 | 7.8 | 0.49 | 
26 | N=C(Nc1ccc2ccn(CCCN3CCOCC3)c2c1)c1ccoc1 [Compound 184] |  |  |  | 19 | 19 | 1 | 
27 | CSC(=N)Nc1ccc2[nH]cc(C3=CCN(C)CC3)c2c1 [Compound 75, Methyl 3-(1-methyl-1,2,3,6-tetrahydropyridin-4-yl)-1H-indol-5-ylcarbamimidothioate] | 36.1 | 16.0 | 2.25 |  |  |  | 
28 | CN1CCC[C@H]1Cc1c[nH]c2ccc(NC(=N)c3ccco3)cc12 [Compound 107, (S)-N-(3-((1-methylpyrrolidin-2-yl)methyl)-1H-indol-5-yl)furan-2-carboximidamide] | 24.9 | 9.9 | 2.52 |  |  |  | 
29 | CN(C)CCCn1ccc2ccc(NC(=N)c3cccs3)cc21 [Compound 157, N-(1-(3-(dimethylamino)propyl)-1H-indol-6-yl)thiophene-2-carboximidamide] |  |  |  | 28.3 | 41.1 | 0.7 | 
30 | CCSC(=N)Nc1ccc2[nH]cc(C3=CCN(C)CC3)c2c1 [Compound 67, Ethyl 3-(1-methyl-1,2,3,6-tetrahydropyridin-4-yl)-1H-indol-5-ylcarbamimidothioate] | 105 | 22 | 4.8 |  |  |  | 
31 | N=C(Nc1ccc2[nH]cc(-c3ccncc3)c2c1)c1cccs1 [Compound 73, N-(3-(pyridin-4-yl)-1H-indol-5-yl)thiophene-2-carboximidamide] | 43.4 | 19.7 | 2.2 |  |  |  | 
32 | CNCCCn1ccc2ccc(NC(=N)c3cccs3)cc21 [Compound 161] |  |  |  | 9.91 | 5.57 | 1.78 | 
